Reference: publication PMC12377202, “Design, synthesis, and cytotoxic evaluation of quinazoline-based derivatives as VEGER-2 inhibitors: comparative study against EGFR kinase activity, induction of apoptosis, and molecular docking study” (RSC Advances, 2025)

Key:
Type in all cases: cell-based, human
[1] = test system: caspase-9; assay: Caspase-9 expression level in HepG-2 cells; conditions: for Caspase-9 ± SE: HepG-2, at IC50 concentrations, control 11.01; for caspase-9 expression level, fold increase: HepG-2, vs control cells
Method: (§1) All synthesized compounds were tested at their cytotoxic concentrations in HepG-2 cells for analysis of gene expression levels of apoptotic markers caspase-3, caspase-9, TNF-α, and IL-6 proteins, and only two active compounds were tested for BAX and Bcl-2 proteins.
(§2) through Flow cytometric analysis.
(§3) Pellets were collected again and incubated with
(§4) Total RNA from vehicle-treated
(§5) (Thermo Scientific, USA).
(§6) All experiments were performed in […]

[2] = test system: MCF-7; assay: MTT anti-proliferative assay, MCF-7; conditions: Homo sapiens, MCF7; for viability at 0.195 µmol / cytotoxicity at 0.195 µmol: MCF-7, 0.195 umol; for cytotoxicity at 0.195 µmol / cytotoxicity at 0.391 µmol / cytotoxicity at 0.781 µmol / cytotoxicity at 1.563 µmol / cytotoxicity at 3.125 µmol / cytotoxicity at 6.25 µmol / cytotoxicity at 12.5 µmol / cytotoxicity at 25 µmol: read-out: Toxicity %; for viability at 0.391 µmol / cytotoxicity at 0.391 µmol: MCF-7, 0.391 umol; for viability at 0.781 µmol / cytotoxicity at 0.781 µmol: MCF-7, 0.781 umol; for viability at 1.563 µmol / cytotoxicity at 1.563 µmol: MCF-7, 1.563 umol; for viability at 3.125 µmol / cytotoxicity at 3.125 µmol: MCF-7, 3.125 umol; for viability at 6.25 µmol / cytotoxicity at 6.25 µmol: MCF-7, 6.25 umol; for viability at 12.5 µmol / cytotoxicity at 12.5 µmol: MCF-7, 12.5 umol; for viability at 25 µmol / cytotoxicity at 25 µmol: MCF-7, 25 umol; for IC50: MTT, MCF-7, read-out: Cytotoxicity against cancer cells IC50 MCF-7
[3] = test system: K-562; assay: MTT anti-proliferative assay, K-562; conditions: Homo sapiens, K562; for viability at 0.195 µmol / cytotoxicity at 0.195 µmol: K-562, 0.195 umol; for cytotoxicity at 0.195 µmol / cytotoxicity at 0.391 µmol / cytotoxicity at 0.781 µmol / cytotoxicity at 1.563 µmol / cytotoxicity at 3.125 µmol / cytotoxicity at 6.25 µmol / cytotoxicity at 12.5 µmol / cytotoxicity at 25 µmol: read-out: Toxicity %; for viability at 0.391 µmol / cytotoxicity at 0.391 µmol: K-562, 0.391 umol; for viability at 0.781 µmol / cytotoxicity at 0.781 µmol: K-562, 0.781 umol; for viability at 1.563 µmol / cytotoxicity at 1.563 µmol: K-562, 1.563 umol; for viability at 3.125 µmol / cytotoxicity at 3.125 µmol: K-562, 3.125 umol; for viability at 6.25 µmol / cytotoxicity at 6.25 µmol: K-562, 6.25 umol; for viability at 12.5 µmol / cytotoxicity at 12.5 µmol: K-562, 12.5 umol; for viability at 25 µmol / cytotoxicity at 25 µmol: K-562, 25 umol; for IC50: MTT, K-562, read-out: Cytotoxicity against cancer cells IC50 K-562
[4] = test system: TNF-alpha; assay: TNF-alpha level in HepG-2 cells; conditions: control 43.48
Method: as §1, §2, §3, §4, §5, §6

[5] = test system: IL-6R; assay: IL-6R level in HepG-2 cells; conditions: for IL-6R ± SE: HepG-2, at IC50 concentrations; for IL-6R ± SE / IL-6 ±SE: control 44.10; for IL-6R protein level: HepG-2, control 44.10%; for IL-6 ±SE: raw data, HepG2
Method: as §1, §2, §3, §4, §5, §6

[6] = test system: HepG-2; assay: MTT anti-proliferative assay, HepG-2; conditions: Homo sapiens, HepG2; for viability at 0.195 µg/mL / cytotoxicity at 0.195 µg/mL: HepG-2, 0.195 ug/ml; for cytotoxicity at 0.195 µg/mL / cytotoxicity at 0.391 µg/mL / cytotoxicity at 0.781 µg/mL / cytotoxicity at 1.563 µg/mL / cytotoxicity at 3.125 µg/mL / cytotoxicity at 6.25 µg/mL / cytotoxicity at 12.5 µg/mL / cytotoxicity at 25 µg/mL: read-out: Toxicity %; for viability at 0.391 µg/mL / cytotoxicity at 0.391 µg/mL: HepG-2, 0.391 ug/ml; for viability at 0.781 µg/mL / cytotoxicity at 0.781 µg/mL: HepG-2, 0.781 ug/ml; for viability at 1.563 µg/mL / cytotoxicity at 1.563 µg/mL: HepG-2, 1.563 ug/ml; for viability at 3.125 µg/mL / cytotoxicity at 3.125 µg/mL: HepG-2, 3.125 ug/ml; for viability at 6.25 µg/mL / cytotoxicity at 6.25 µg/mL: HepG-2, 6.25 ug/ml; for viability at 12.5 µg/mL / cytotoxicity at 12.5 µg/mL: HepG-2, 12.5 ug/ml; for viability at 25 µg/mL / cytotoxicity at 25 µg/mL: HepG-2, 25 ug/ml; for IC50: MTT, HepG-2, read-out: Cytotoxicity against cancer cells IC50 HepG-2
[7] = test system: caspase-3; assay: Caspase-3 expression level in HepG-2 cells; conditions: for Caspase-3 ± SE: HepG-2, at IC50 concentrations, control 0.460; for caspase-3 expression level, fold increase: HepG-2, vs control cells
Method: as §1, §2, §3, §4, §5, §6

SMILES: O=C(Cn1cnc2cc(Cl)ccc2c1=O)Nc1ccc(Cl)cc1 [8c, 2-(7-Chloro-4-oxoquinazolin-3(4H)-yl)-N-(4-chlorophenyl)acetamide]
- Caspase-9 ± SE [1]: 26.98 ± 1.30 ng/L
- Caspase-9 ± SE ([1]; listed as R1): 26.98 ng/L
- caspase-9 expression level, fold increase [1]: 2.5 fold
- viability at 0.195 µmol [2]: 46.1%
- cytotoxicity at 0.195 µmol [2]: 53.9%
- viability at 0.391 µmol [2]: 32.9%
- cytotoxicity at 0.391 µmol [2]: 67.1%
- viability at 0.781 µmol [2]: 20.3%
- cytotoxicity at 0.781 µmol [2]: 79.7%
- viability at 1.563 µmol [2]: 13.1%
- cytotoxicity at 1.563 µmol [2]: 86.9%
- viability at 3.125 µmol [2]: 10.2%
- cytotoxicity at 3.125 µmol [2]: 89.8%
- viability at 6.25 µmol [2]: 8.44%
- cytotoxicity at 6.25 µmol [2]: 91.6%
- viability at 12.5 µmol [2]: 8.05%
- cytotoxicity at 12.5 µmol [2]: 92%
- viability at 25 µmol [2]: 6.64%
- cytotoxicity at 25 µmol [2]: 93.4%
- IC50 [2]: 188 ± 2.6 nM
- viability at 0.195 µmol [3]: 80.8%
- cytotoxicity at 0.195 µmol [3]: 19.2%
- viability at 0.391 µmol [3]: 60.1%
- cytotoxicity at 0.391 µmol [3]: 39.9%
- viability at 0.781 µmol [3]: 34.4%
- cytotoxicity at 0.781 µmol [3]: 65.6%
- viability at 1.563 µmol [3]: 19.5%
- cytotoxicity at 1.563 µmol [3]: 80.5%
- viability at 3.125 µmol [3]: 13%
- cytotoxicity at 3.125 µmol [3]: 87%
- viability at 6.25 µmol [3]: 9.89%
- cytotoxicity at 6.25 µmol [3]: 90.1%
- viability at 12.5 µmol [3]: 8.25%
- cytotoxicity at 12.5 µmol [3]: 91.7%
- viability at 25 µmol [3]: 6.53%
- cytotoxicity at 25 µmol [3]: 93.5%
- IC50 [3]: 544.4 ± 3.2 nM
- TNF-alpha ±SE ([4]; HepG-2, at IC50 concentrations): 9.13 ± 0.37 ng/L
- TNF-alpha ±SE ([4]; raw data, HepG2): 10.2 ng/L
- IL-6R ± SE [5]: 14.73 ± 1.06 ng/L
- IL-6R protein level [5]: 14.73 ng/L
- IL-6 ±SE [5]: 16.64 ng/L
- viability at 0.195 µg/mL [6]: 89.2%
- cytotoxicity at 0.195 µg/mL [6]: 10.8%
- viability at 0.391 µg/mL [6]: 65.9%
- cytotoxicity at 0.391 µg/mL [6]: 34.1%
- viability at 0.781 µg/mL [6]: 47.8%
- cytotoxicity at 0.781 µg/mL [6]: 52.2%
- viability at 1.563 µg/mL [6]: 29.9%
- cytotoxicity at 1.563 µg/mL [6]: 70.1%
- viability at 3.125 µg/mL [6]: 15.9%
- cytotoxicity at 3.125 µg/mL [6]: 84.1%
- viability at 6.25 µg/mL [6]: 11%
- cytotoxicity at 6.25 µg/mL [6]: 89%
- viability at 12.5 µg/mL [6]: 7.66%
- cytotoxicity at 12.5 µg/mL [6]: 92.3%
- viability at 25 µg/mL [6]: 6.7%
- cytotoxicity at 25 µg/mL [6]: 93.3%
- IC50 [6]: 734.4 ± 2.3 nM
- Caspase-3 ± SE [7]: 1.25 ± 0.090 ng/mL
- Caspase-3 ± SE ([7]; listed as R1): 1.25 ng/mL
- caspase-3 expression level, fold increase [7]: 2.72 fold

SMILES: O=C(Cn1cnc2cc(Cl)ccc2c1=O)Nc1ccc(F)c(Cl)c1 [8e, N-(3-Chloro-4-fluorophenyl)-2-(7-chloro-4-oxoquinazolin-3(4H)-yl)acetamide]
- Caspase-9 ± SE [1]: 48.44 ± 1.24 ng/L
- Caspase-9 ± SE ([1]; listed as R5): 48.44 ng/L
- caspase-9 expression level, fold increase [1]: 4.4 fold
- viability at 0.195 µmol [2]: 81.5%
- cytotoxicity at 0.195 µmol [2]: 18.5%
- viability at 0.391 µmol [2]: 62.1%
- cytotoxicity at 0.391 µmol [2]: 37.9%
- viability at 0.781 µmol [2]: 32.7%
- cytotoxicity at 0.781 µmol [2]: 67.3%
- viability at 1.563 µmol [2]: 19%
- cytotoxicity at 1.563 µmol [2]: 81%
- viability at 3.125 µmol [2]: 12.8%
- cytotoxicity at 3.125 µmol [2]: 87.2%
- viability at 6.25 µmol [2]: 9.01%
- cytotoxicity at 6.25 µmol [2]: 91%
- viability at 12.5 µmol [2]: 7.65%
- cytotoxicity at 12.5 µmol [2]: 92.3%
- viability at 25 µmol [2]: 6.46%
- cytotoxicity at 25 µmol [2]: 93.5%
- IC50 [2]: 552.3 ± 1.7 nM
- viability at 0.195 µmol [3]: 52.8%
- cytotoxicity at 0.195 µmol [3]: 47.2%
- viability at 0.391 µmol [3]: 45.2%
- cytotoxicity at 0.391 µmol [3]: 54.8%
- viability at 0.781 µmol [3]: 31.6%
- cytotoxicity at 0.781 µmol [3]: 68.4%
- viability at 1.563 µmol [3]: 21.1%
- cytotoxicity at 1.563 µmol [3]: 78.9%
- viability at 3.125 µmol [3]: 10.3%
- cytotoxicity at 3.125 µmol [3]: 89.7%
- viability at 6.25 µmol [3]: 8.78%
- cytotoxicity at 6.25 µmol [3]: 91.2%
- viability at 12.5 µmol [3]: 7.43%
- cytotoxicity at 12.5 µmol [3]: 92.6%
- viability at 25 µmol [3]: 5.91%
- cytotoxicity at 25 µmol [3]: 94.1%
- IC50 [3]: 266.4 ± 1.7 nM
- TNF-alpha ±SE ([4]; HepG-2, at IC50 concentrations): 32.07 ± 2.32 ng/L
- TNF-alpha ±SE ([4]; raw data, HepG2): 27.34 ng/L
- IL-6R ± SE [5]: 11.93 ± 0.25 ng/L
- IL-6R protein level [5]: 11.93 ng/L
- IL-6 ±SE [5]: 28.78 ng/L
- viability at 0.195 µg/mL [6]: 93.8%
- cytotoxicity at 0.195 µg/mL [6]: 6.15%
- viability at 0.391 µg/mL [6]: 75.6%
- cytotoxicity at 0.391 µg/mL [6]: 24.4%
- viability at 0.781 µg/mL [6]: 62.3%
- cytotoxicity at 0.781 µg/mL [6]: 37.7%
- viability at 1.563 µg/mL [6]: 47.6%
- cytotoxicity at 1.563 µg/mL [6]: 52.4%
- viability at 3.125 µg/mL [6]: 23.1%
- cytotoxicity at 3.125 µg/mL [6]: 76.9%
- viability at 6.25 µg/mL [6]: 11.9%
- cytotoxicity at 6.25 µg/mL [6]: 88.1%
- viability at 12.5 µg/mL [6]: 9.45%
- cytotoxicity at 12.5 µg/mL [6]: 90.5%
- viability at 25 µg/mL [6]: 7.22%
- cytotoxicity at 25 µg/mL [6]: 92.8%
- IC50 [6]: 1436 ± 7.3 nM
- Caspase-3 ± SE [7]: 1.54 ± 0.11 ng/mL
- Caspase-3 ± SE ([7]; listed as R5): 1.54 ng/mL
- caspase-3 expression level, fold increase [7]: 3.35 fold
